Data as given in patent US11312721B2 (priority 2015, dated 2022).

Key:
[1] = system: aged-impaired (AI) rats; test: Morris water maze behavioral task; type: in vivo, rat; details: 100 μg ICV
Experimental: The effects of 6,6 dimethyl-3-(3-hydroxypropyl)thio-1-(thiazol-2-yl)-6,7-dihydro-2-benzothiophen-4(5H)-one on the in vivo spatial memory retention of aged-impaired (AI) rats were assessed in a Morris water maze behavioral task. A water maze is a pool surrounded with a novel set of patterns relative to the maze.
Cognitively impaired aged rats were implanted unilaterally with a cannula into the lateral ventricle. Stereotaxic coordinates were 1.0 mm posterior to bregma, 1.5 mm lateral to midline, and 3.5 mm ventral to the skull surface. After about a week of recovery, the rats were pre-trained in a water maze for 2 days (6 trials per day) to locate a submerged escape platform hidden underneath the surface of the pool, in which the escape platform location varied from day to day. No intracerebroventricular (ICV) infusion was given during pre-training.
After pre-training, rats received ICV infusion of either 100 μg 6,6 dimethyl-3-(3-hydroxypropyl)thio-1-(thiazol-2-yl)-6,7-dihydro-2-benzothiophen-4(5H)-one (n=6) in 5 μl DMSO or vehicle DMSO (n=5) 40 min prior to water maze training and testing. Training consisted of 8 trials per day for 2 days where the hidden escape platform remained in the same location. Rats were given 60 seconds to locate the platform with a 60 seconds inter-trial interval. The rats were given a probe test (120 seconds) 24 hr. after the end of training where the escape platform was removed. During the training, there were 4 blocks, where each block had 4 training trials.
During a test trial 24 hr. after training, the escape platform was removed. The search/swim pattern of the rats was used to measure whether the rats remember where the escape platform was located during pre-trial training in order to test for the long-term memory of the rats. In this trial, “target annulus” is a designated area 1.5 times the size of the escape platform around the area where the platform was located during pre-trial training. “Opposite annulus” is a control area of the same size as the size of the target annulus, which is located opposite to the target annulus in the pool. If the rats had good long term memory, they would tend to search in the area surrounding the location where the platform was during the pre-trial training (i.e., the “target” annulus; and not the “opposite” annulus). “Time in annulus” is the amount of time in seconds that the rat spent in the target or opposite annulus area. “Number (#) of crossings” in annulus is the number of times the rat swam across the target or opposite annulus area.

[2] = target: T1, α5β3γ2 GABAA receptors (Ltk cells) (Homo sapiens, UniProt P18507+P31644); test: Binding activity on GABAAR: inhibition of [3H]Ro15-1788 binding
T1 construct: membranes
Experimental: Tissue culture and Membrane Preparation: The binding was performed on Ltk cells stably expressing GABAA receptors: α1β1γ2, α2β3γ2, α3β3γ2 and α5β3γ2 (provided by Merck Co., NJ, USA). Cells were seeded in 100 mm culture plates in DMEM/F12 medium containing 10% serum and antibiotics in 5% CO2 and allowed to grow for 1-2 days. GABAAR expression was then induced by dexamethasone as follows: 0.5 μM for 1 day for α5 containing and 2 μM for 3 days for α1, α2 and α3 containing GABAARs. After induction, cells were collected by scraping into Dulbecco's Phosphate buffered saline (DPBS, pH 7.4, Invitrogen, Carlsbad, Calif., USA) and centrifuged at 150×g for 10 min. The pellet was washed twice by re-suspension and centrifugation. The cell pellets from at least 5 different preps were combined, suspended in the binding assay buffer (50 mM KH2PO4; 1 mM EDTA; 0.2 M KCl, pH 7.4) and membranes prepared by sonication (3-5 times, 30 sec) using Branson Sonifier 150 (G. Heinmann, Germany). Protein content was determined using BCA assay (Bio-Rad Labs, Reinach, Switzerland) with Bovine Serum Albumin (Sigma Aldrich, St. Louis, Mo., USA) as the standard. Aliquots were prepared and stored at −20° C. for further use in binding assays.
Ligand Binding: Saturation binding curves were obtained by incubating membranes with increasing concentrations (0.01-8 nM) of [^3H]Ro15-1788 (Flumazepil, 75-85 Ci/mmol, PerkinElmer, MA, USA), with nonspecific binding measured in the presence of 10 μM diazepam.
All binding assays were performed for 1 h at 4° C. in assay buffer. The total assay volume was 0.5 ml containing 0.2 mg/ml protein for α5 and 0.4 mg/ml for α1, α2, and α3 containing GABAAR membranes. Incubations were terminated by filtration through GF/B filters using a 24-Cell Harvestor (Brandel, Gaithersburg, Md., USA) followed by 3 washes with ice-cold assay buffer. Filters were transferred to scintillation vials, 5 ml scintillation liquid added, vortex-mixed and kept in dark. Next day, radioactivity was obtained using a scintillation counter (Beckman Coulter, Brea, Calif., USA). All assays were performed in triplicate.
Data Analyses: Saturation and inhibition curves were obtained using GraphPad Prism software (GraphPad Software, Inc., CA, USA).

[3] = target: T2, GABAA receptors (α5β2γ2) (Homo sapiens, UniProt P18507+P31644); test: Positive allosteric modulator activity: potentiation of EC20 GABA current in oocytes; type: cell-based; details: read-out: GABA α5 functional potentiation
T2 construct: expressed in transfected cells
Experimental: On day 1, 1 ng/32 nL of GABAA α5β2γ2 cDNA was injected into one oocyte. Test starts on day 2. The cDNA injected to the oocytes was a mix of alpha, beta and gamma, their ratio is 1:1:10 (by weight) and the total weight of the mixed 3 subunits to be injected in one oocyte was 1 ng in 32 nl volume. The injected oocytes can also be tested on day 3. In such case, the cDNA amount injected to the oocytes should be reduced by 20%.
1). 8 oocytes were placed in 8 chambers of OpusXpress and superfused with Modified Barth's Saline (MBS) at 3 mL/min. Glass electrodes back-filled with 3M KCl (0.5-3 megaohms) were used.
1). Repeat the above steps 1), 2) and 3) in the control test.
2). […] Divide Itest by IGABA to obtain potentiation (%).
3). Discard all tested oocytes, new oocytes were used and the above steps 1) and 2) were repeated to test second concentration of the same compound. Each oocyte was used for only one concentration test for a single test compound. The steps were repeated for other test compounds.

[4] = target: T3, GABAA α5 receptor (Rattus norvegicus, UniProt P19969); test: GABAA α5 receptor occupancy in vivo with Ro 15-4513 tracer; set-up: species or system Long Evans rats; details: for effect on Ro 15-4513 binding in hippocampus and cerebellum: 0.01-10 mg/kg
T3 construct: from tissue
Text: Food and water were available ad libitum.

[5] = system: MAM-treated rats; details: cited from earlier work
[6] = system: aged-impaired (AI) rats; test: Radial Arm Maze (RAM) behavioral task, spatial memory retention; type: in vivo, rat; details: four-hour delay RAM
Experimental: The effects of methyl 3,5-diphenylpyridazine-4-carboxylate on the in vivo spatial memory retention of aged-impaired (AI) rats were assessed in a Radial Arm Maze (RAM) behavioral task using vehicle control and four different dosage levels of methyl 3,5-diphenylpyridazine-4-carboxylate ([…]). RAM behavioral tasks were performed on eight AI rats. All five treatment conditions (vehicle and four dosage levels) were tested on all eight rats.
The RAM apparatus used consisted of eight equidistantly-spaced arms. An elevated maze arm (7 cm width×75 cm length) projected from each facet of an octagonal center platform (30 cm diameter, 51.5 cm height). Clear side walls on the arms were 10 cm high and were angled at […] to form a trough. A food well (4 cm diameter, 2 cm deep) was located at the distal end of each arm. Froot Loops™ (Kellogg Company) were used as rewards. Blocks constructed of Plexiglas™ (30 cm height×12 cm width) could be positioned to prevent entry to any arm. Numerous extra maze cues surrounding the apparatus were also provided.
The AI rats were initially subjected to a pre-training test (Chappell et al. Neuropharmacology 37: 481-487, 1998). The pre-training test consisted of a habituation phase (4 days), a training phase on the standard win-shift task (18 days) and another training phase (14 days) in which a brief delay was imposed between presentation of a subset of arms designated by the experimenter (e.g., 5 arms available and 3 arms blocked) and completion of the eight-arm win-shift task (i.e., with all eight arms available).
In the habituation phase, rats were familiarized to the maze for an 8-minute session on four consecutive days. In each of these sessions, food rewards were scattered on the RAM, initially on the center platform and arms and then progressively confined to the arms. After this habituation phase, a standard training protocol was used, in which a food pellet was located at the end of each arm. Rats received one trial each day for 18 days. Each daily trial terminated when all eight food pellets had been obtained or when either 16 choices were made or 15 minutes had elapsed. After completion of this training phase, a second training phase was carried out in which the memory demand was increased by imposing a brief delay during the trial. At the beginning of each trial, three arms of the eight-arm maze were blocked. Rats were allowed to obtain food on the five arms to which access was permitted during this initial “information phase” of the trial. Rats were then removed from the maze for 60 seconds, during which time the barriers on the maze were removed, thus allowing access to all eight arms. Rats were then placed back onto the center platform and allowed to obtain the remaining food rewards during this “retention test” phase of the trial. […]

[7] = probe test 24 hr. after training

T3 sequence (P19969 32-464 limits assumed): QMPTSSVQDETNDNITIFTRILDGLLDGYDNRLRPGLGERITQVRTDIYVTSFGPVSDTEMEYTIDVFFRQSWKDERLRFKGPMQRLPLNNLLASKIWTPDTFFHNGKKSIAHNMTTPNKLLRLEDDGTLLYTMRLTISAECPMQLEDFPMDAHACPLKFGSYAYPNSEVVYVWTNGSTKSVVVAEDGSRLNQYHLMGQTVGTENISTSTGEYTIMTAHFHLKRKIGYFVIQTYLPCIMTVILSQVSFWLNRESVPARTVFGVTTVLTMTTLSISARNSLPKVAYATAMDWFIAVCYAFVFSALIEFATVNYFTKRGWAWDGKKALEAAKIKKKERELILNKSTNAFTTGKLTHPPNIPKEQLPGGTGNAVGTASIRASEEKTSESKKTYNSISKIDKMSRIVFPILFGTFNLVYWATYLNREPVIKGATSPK
T1 sequence (P31644 32-462): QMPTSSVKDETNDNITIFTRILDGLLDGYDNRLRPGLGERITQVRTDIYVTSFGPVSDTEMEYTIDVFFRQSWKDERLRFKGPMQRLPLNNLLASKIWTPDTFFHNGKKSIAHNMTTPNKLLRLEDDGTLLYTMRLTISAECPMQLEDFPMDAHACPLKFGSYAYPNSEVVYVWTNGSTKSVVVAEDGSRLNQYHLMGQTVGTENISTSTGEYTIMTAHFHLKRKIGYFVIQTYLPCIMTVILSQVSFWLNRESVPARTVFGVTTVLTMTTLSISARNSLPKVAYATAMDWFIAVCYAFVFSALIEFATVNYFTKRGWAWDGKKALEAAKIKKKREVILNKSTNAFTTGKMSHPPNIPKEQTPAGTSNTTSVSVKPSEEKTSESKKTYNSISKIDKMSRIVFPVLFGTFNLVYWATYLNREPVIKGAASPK
T1 sequence (P28472 26-473 partner): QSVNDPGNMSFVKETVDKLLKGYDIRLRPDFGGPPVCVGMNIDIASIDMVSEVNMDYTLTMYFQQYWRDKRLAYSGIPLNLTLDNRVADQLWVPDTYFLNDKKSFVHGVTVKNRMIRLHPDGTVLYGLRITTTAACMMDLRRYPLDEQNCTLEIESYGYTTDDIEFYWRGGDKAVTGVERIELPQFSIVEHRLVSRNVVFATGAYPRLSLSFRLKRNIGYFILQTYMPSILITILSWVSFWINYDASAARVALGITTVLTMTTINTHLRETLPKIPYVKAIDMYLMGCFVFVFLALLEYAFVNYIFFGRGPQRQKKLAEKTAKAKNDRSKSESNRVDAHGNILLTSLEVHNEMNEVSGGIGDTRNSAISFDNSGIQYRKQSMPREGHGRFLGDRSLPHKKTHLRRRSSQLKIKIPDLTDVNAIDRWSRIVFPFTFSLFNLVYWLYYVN
T1 sequence (P18507 40-475): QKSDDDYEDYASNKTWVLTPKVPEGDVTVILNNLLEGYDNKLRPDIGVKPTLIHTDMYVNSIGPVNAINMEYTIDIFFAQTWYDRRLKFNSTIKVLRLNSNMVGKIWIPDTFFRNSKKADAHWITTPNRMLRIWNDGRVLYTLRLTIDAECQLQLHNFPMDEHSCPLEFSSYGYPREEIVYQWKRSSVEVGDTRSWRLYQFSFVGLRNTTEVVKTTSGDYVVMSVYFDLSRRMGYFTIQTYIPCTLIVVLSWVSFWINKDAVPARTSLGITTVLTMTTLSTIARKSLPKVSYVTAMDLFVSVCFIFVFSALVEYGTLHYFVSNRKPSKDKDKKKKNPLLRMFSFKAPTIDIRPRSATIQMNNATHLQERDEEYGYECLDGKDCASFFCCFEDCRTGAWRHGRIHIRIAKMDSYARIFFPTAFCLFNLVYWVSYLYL
T2 sequence (P31644 32-462): as the sequence (P31644 32-462) above
T2 sequence (P47870 25-512 partner limits assumed): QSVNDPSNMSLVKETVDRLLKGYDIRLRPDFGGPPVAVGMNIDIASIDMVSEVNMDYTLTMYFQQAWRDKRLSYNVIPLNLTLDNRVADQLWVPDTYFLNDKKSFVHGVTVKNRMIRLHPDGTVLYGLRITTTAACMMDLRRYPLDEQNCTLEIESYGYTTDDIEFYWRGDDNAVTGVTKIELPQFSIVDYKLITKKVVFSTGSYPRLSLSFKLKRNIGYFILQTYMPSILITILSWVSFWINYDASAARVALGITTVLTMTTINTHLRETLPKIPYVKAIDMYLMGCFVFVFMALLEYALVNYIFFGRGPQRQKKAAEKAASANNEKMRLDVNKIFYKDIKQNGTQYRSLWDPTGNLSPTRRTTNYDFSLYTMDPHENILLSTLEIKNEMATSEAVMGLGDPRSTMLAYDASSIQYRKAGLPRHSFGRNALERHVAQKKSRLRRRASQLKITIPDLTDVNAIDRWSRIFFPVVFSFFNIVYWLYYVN
T2 sequence (P18507 40-475): as the sequence (P18507 40-475) above

CC1(C)CC(=O)c2c(SCCCO)sc(-c3nccs3)c2C1 [6,6 dimethyl-3-(3-hydroxypropyl)thio-1-(thiazol-2-yl)-6,7-dihydro-2-benzothiophen-4(5H)-one]
time to find the escape platform ([1]; block 1 (beginning of training)): about 24 seconds | time to find the escape platform ([1]; block 4 (end of training)): about 9.6 seconds | number of crossings of target annulus compared with opposite annulus [1, 7]: crossed the “target annulus” more often | time in target annulus compared with opposite annulus [1, 7]: spent significantly more time in the target annulus

C#Cc1ncn2c1Cn1c(COC)nnc1-c1cc(Cl)ccc1-2 [Compound 256]
Ki [2]: < 99 nM | activation at 0.1 µM [3]: 20 to 49%

COc1ccc2c(c1)-n1nncc1Cc1c(-c3nc(C(C)C)no3)ncn1-2 [Compound 257]
Ki [2]: < 99 nM | activation at 0.1 µM [3]: 20 to 49%

COCc1nnc2n1Cc1c(C3=N[C@@H](c4ccccc4)CO3)ncn1-c1ccc(Cl)cc1-2 [Compound 264]
Ki [2]: < 99 nM | activation at 0.1 µM [3]: 20 to 49%

CCOCc1nnc2n1Cc1c(C3=N[C@H](c4ccccc4)CO3)ncn1-c1ccc(Cl)cc1-2 [Compound 271]
Ki [2]: < 99 nM | activation at 0.1 µM [3]: > 50%

COc1ccc2c(c1)-n1nncc1Cc1c(C3=N[C@H](c4ccccc4)CO3)ncn1-2 [Compound 290]
Ki [2]: < 99 nM | activation at 0.1 µM [3]: 20 to 49%

COCc1nnc2n1Cc1c(C#Cc3ccccc3C)ncn1-c1ccc(Cl)cc1-2 [Compound 293]
Ki [2]: < 99 nM | activation at 0.1 µM [3]: 20 to 49%

CCOC(=O)c1ncn2c1Cn1c(C)nnc1-c1cc(OC)ccc1-2 [Ethyl 3-methoxy-7-methyl-9H-benzo[f]imidazo[1,5-a][1,2,4]tri]
effect on Ro 15-4513 binding in hippocampus and cerebellum ([4]; i.v.): blocked the binding of Ro154513 in the hippocampus but did not affect binding of Ro15413 in the cerebellum

CCOC(=O)c1ncn2c1CN(C)C(=O)c1cc(N=[N+]=[N-])ccc1-2 [Ro 15-4513]
tracer level, hippocampus compared with cerebellum ([4]; 1 μg/kg, i.v. tracer after vehicle): > 5 fold

C#Cc1ccc2c(c1)C(c1ccccc1F)=N[C@H](C)c1c(C(=O)OCC)ncn1-2 [SH-053-2′F—R—CH3]
number of spontaneously active DA neurons in the VTA ([5]; MAM rats, systemic or infused into the ventral HPC): reduces the number of spontaneously active DA neurons in the ventral tegmental area (VTA) of MAM rats to levels observed in saline-treated rats | locomotor response to amphetamine ([5]; MAM-treated rats): is reduced | cortical-evoked responses of HPC neurons ([5]; saline-treated and MAM-treated animals): diminished cortical-evoked responses

CCOC(=O)c1ncn2c1Cn1c(C)nnc1-c1cc(OC)ccc1-2 [ethyl 3-methoxy-7-methyl-9H-benzo[f]imidazo[1,5-a][1,2,4]tri]
effect on Ro 15-4513 binding in hippocampus and cerebellum ([4]; i.v.): reduced Ro 15-4513 binding in hippocampus, without affecting cerebellum levels of Ro 15-4513 | GABAA α5 receptor occupancy ([4]; 10 mg/kg, i.v.): > 90% | memory performance relative to vehicle control ([6]; 3 mg/kg, t(7)=4.13, p=0.004, or t(7)=3.08, p=0.018): significantly improved memory performance | memory performance relative to vehicle control ([6]; 10 mg/kg, t(7)=2.82, p=0.026): significantly improved memory performance
